Assay results from patent US20060067886A1, “Gastrin receptor-avid peptide conjugates” (priority 1997, published 2006).

Target: T1, GRP receptors on Swiss 3T3 cells (Mus musculus, UniProt P21729)
T1 construct: endogenous in cells; host or cells: Swiss 3T3 mouse fibroblasts (whole cells)
Test: Competitive cell binding vs 125I-Tyr4-BBN, Swiss 3T3 cells
Experimental: The binding affinities of the synthetic BBN derivatives were assessed for GRP receptors on Swiss 3T3 cells and, in some cases, on a variety of human cancer cell lines, that express GRP receptors. […] The cell binding assay methods used to measure the IC50's is standard and used techniques previously reported [Jensen et al., 1993; Cai et al., 1994; Cai et al., 1992]. The methods used for determining IC50's for all GRP receptor binding compounds on all cell lines was similar. The specific method used to measure IC50's on Swiss 3T3 cells is briefly described as follows:
(§1) Swiss 3T3 mouse fibroblasts are grown to confluence in 48 well microtiter plates. […] The growth media was removed, the cells were washed twice with incubation media, and incubation media was returned to the cells. ^125I-Tyr4-BBN (0.01 uCi) was added to each well in the presence of increasing concentrations of the appropriate competitive peptide. Typical concentrations of displacing peptide ranged from 10-12 to 10-5 moles of displacing ligand per well. The cells were incubated at 37° C. for forty minutes in a 95% […]/5% CO2 humidified environment. At forty minutes post initiation of the incubation, the medium was discarded, and the cells were washed twice with cold incubation media. The cells were harvested from the wells following incubation in a trypsin/EDTA solution for five minutes at 37° C. Subsequently, the radioactivity, per well, was determined and the maximum % total uptake of the radiolabeled peptide was determined and normalized to 100%.
The binding affinities of the synthetic BBN derivatives were assessed for GRP receptors on Swiss 3T3 cells, PC-3 cells and CF PAC-1 cells. The IC50's of each of derivative were determined relative to (i.e., in competition with) ^125I-Tyr^4-BBN. The cell binding assay methods used to measure the IC50's is standard and was used by techniques previously reported [Jensen et al., 1993; Cai et al., 1992; Cai et al., 1994]. The methods used for determining IC50's with all BBN analogue binding to GRP receptors present on all three cell lines were similar. The specific method used to measure IC50's on Swiss 3T3 cells, is briefly described as follows:
as §1, with “microliter” for “microtiter”, “^125I-Tyr^4-BBN” for “^125I-Tyr4-BBN”, “μCi)” for “uCi)”, “10^−12” for “10-12”, “10^−5” for “10-5”, “100%. A similar procedure was used in performing cell binding assays with both the PC-3 and CFa-PAC-1 human cancer cell lines.” for “100%.”

T1 sequence (P21729 whole entry): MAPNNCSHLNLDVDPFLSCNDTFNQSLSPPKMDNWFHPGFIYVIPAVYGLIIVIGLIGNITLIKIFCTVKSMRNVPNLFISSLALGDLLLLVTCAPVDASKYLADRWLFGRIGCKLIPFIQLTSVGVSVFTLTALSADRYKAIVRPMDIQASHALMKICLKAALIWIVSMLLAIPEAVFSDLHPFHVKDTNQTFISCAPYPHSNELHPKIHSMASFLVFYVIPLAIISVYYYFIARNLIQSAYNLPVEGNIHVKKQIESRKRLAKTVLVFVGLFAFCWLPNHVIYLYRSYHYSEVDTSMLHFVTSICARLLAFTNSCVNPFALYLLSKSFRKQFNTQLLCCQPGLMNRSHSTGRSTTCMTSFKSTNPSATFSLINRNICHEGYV

In the case of CSCC[C@H](NC(=O)[C@H](CC(C)C)NC(=O)[C@H](Cc1c[nH]cn1)NC(=O)CNC(=O)[C@@H](NC(=O)[C@H](C)NC(=O)[C@H](Cc1c[nH]c2ccccc12)NC(=O)[C@H](CCC(N)=O)NC(=O)CCNC(=O)COC1CSCCCSCCCSCCCSC1)C(C)C)C(N)=O [RhCl2BBN-46], the IC50 is reported as 3.38 ± 0.69 nM.

CSCC[C@H](NC(=O)[C@H](CC(C)C)NC(=O)[C@H](Cc1c[nH]cn1)NC(=O)CNC(=O)[C@@H](NC(=O)[C@H](C)NC(=O)[C@H](Cc1c[nH]c2ccccc12)NC(=O)[C@H](CCC(N)=O)NC(=O)CCCCCCCNC(=O)COC1CSCCCSCCCSCCCSC1)C(C)C)C(N)=O [BBN-47] gave an IC50 of 4.19 ± 0.91 nM.

CSCC[C@H](NC(=O)[C@H](CC(C)C)NC(=O)[C@H](Cc1c[nH]cn1)NC(=O)CNC(=O)[C@@H](NC(=O)[C@H](C)NC(=O)[C@H](Cc1c[nH]c2ccccc12)NC(=O)[C@H](CCC(N)=O)NC(=O)CCCCNC(=O)COC1CSCCCSCCCSCCCSC1)C(C)C)C(N)=O [BBN-37] showed an IC50 of 1.79 ± 0.09 nM.
